Reference: patent US11534114B2, “18F labeled amino acids, derivatives thereof and method of making same” (SIMON FRASER UNIVERSITY, priority 2016, dated 2022)

System: U-87 tumor
Assay: Dynamic PET/CT time-activity curves of accumulation in selected organs
Format: in vivo, mice
Settings: time-activity curves (FIG. 41)

SMILES: CC(C)([18F])CC[C@H](N)C(=O)O [5-[^18F]FHL, 5-[^18F]fluorohomoleucine]
- course of activity in U-87 tumor and pancreas after the peak (after peak accumulation): slow progressive efflux
- time of peak accumulation in the U-87 tumor and pancreas (intravenous injection, mice bearing U-87 xenograft, 60 min dynamic scan): < 10 min
